Tested on: human SIRT6 promoter
Test: SIRT6 promoter activity in Caco-2-SIRT6p-EGFP reporter cells
Format: cell-based
Conditions: Caco-2-SIRT6p-EGFP cells, 10 μM test component, two days after addition, EGFP fluorescence, relative ratio to control (PBS); FIG. 1
From the text: The human SIRT6 promoter region (from −1105 to −1 bp; SEQ ID NO: 1) was amplified by PCR using KOD FX (TOYOBO, Tokyo, Japan) with genomic DNA derived from human fetal fibroblast TIG-1 as a template. Primers used were obtained by adding restriction endonuclease recognition sequences of AseI and NheI to the ends based on the reported base sequence information of the hSIRT6 promoter. Specifically, […] designed as SIRT6p-AseI ([…]: SEQ ID NO: 2) and SIRT6p-NheI ([…]: SEQ ID NO: 3) were used. KOD FX (TOYOBO) was used as the DNA polymerase, and PCR was performed under reaction conditions of 40 cycles with one cycle of 94° C. for 2 minutes, 98° C. for 10 seconds, and 68° C. for 1 minute.
The SIRT6 promoter fragment obtained by PCR was TA-cloned into a pGEM-T Easy Vector (Promega Corporation). In addition, the base sequence was confirmed by sequencing. The SIRT6 promoter fragment incorporated into the pGEM-T Easy vector was excised by digestion with restriction enzymes AseI and NheI and inserted into a site of EGFP-C3 (available from Takara Bio Inc.) from which the CMV promoter had been removed by AseI and NheI digestion, and pSIRT6p-EGFP was obtained.
Transfection was performed using HilyMax available from DOJINDO in accordance with its protocol. On the day before transfection, 6.0×10^5 cells of Caco-2 cells (human colon cancer-derived cells; obtained from RIKEN BioResource Research Center) were seeded in a 5-mL dish. On the day of transfection, pSIRT6p-EGFP (15 μg) was diluted with DMEM medium containing 10% FBS to a volume of 300 μL in a 1.5-mL tube, then 70 μL of Hilymax was added to the tube, and the mixture was incubated at room temperature for 20 minutes. Thereafter, the whole amount was added to Caco-2 cells and cultured for 48 hours.
Based on the fact that pSIRT6p-EGFP is resistant to the drug G418 (available from Wako Pure Chemical Industries, Ltd.), drug selection was performed by adding the drug G418 to transfected cells to a final concentration of 800 μg/mL. The culture medium was replaced with a fresh culture medium every 3 days, and G418 was added at the same concentration each time. Caco-2-SIRT6p-EGFP cells were obtained from this.
Using Caco-2-SIRT6p-EGFP cells, a urolithin was examined for its enhancing effect on the promoter of the sirtuin 6 gene SIRT6. […]
Caco-2-SIRT6p-EGFP cells were seeded in a 96-well plate at 0.6×10^4 cells/well. […] This was followed by aspiration and addition of 100 μL of PBS to each well, and the fluorescence intensity was measured with an IN Cell Analyzer 1000 (GE-Healthcare, Amersham Place, UK). The promoter activity was expressed as a relative ratio to the control activity.

## O=c1oc2cc(O)ccc2c2ccc(O)cc12 [urolithin A]
  relative SIRT6 promoter activity (SIRT6 promoter-enhancing activity): strong SIRT6 promoter-enhancing activity

## O=C1OC[C@H]2OC(O)[C@H](O)[C@@H](O)[C@@H]2OC(=O)c2cc(O)c(O)c(O)c2-c2c(O)c(O)c3oc(=O)c4c(c(O)c(O)c5oc(=O)c2c3c54)-c2c1cc(O)c(O)c2O (mixture of isomers) [punicalin]
  relative SIRT6 promoter activity (SIRT6 promoter-enhancing activity): no or little SIRT6 promoter-enhancing activity

## puricalagin
  relative SIRT6 promoter activity (SIRT6 promoter-enhancing activity): no or little SIRT6 promoter-enhancing activity

## C[C@@]12CCc3occc3[C@H]1CC[C@@]13C[C@@H](CC[C@H]12)[C@@](O)(CO)C3 [cafestol]
  relative SIRT6 promoter activity (SIRT6 promoter-enhancing activity): no or little SIRT6 promoter-enhancing activity

Source: US20240000747A1, “SIRTUIN 6 ACTIVATOR” (DAICEL CORPORATION, priority 2020, published 2024)
